The text below walks through data of patent US4568545A, “Thrombolytic agent” (Amano Seiyaku Kabushiki Kaisha, priority 1982, dated 1986).

The assay concerns thrombi formed from blood of a healthy adult. The assay can be described thus: Thrombolytic activity by the Chandler's loop method. Format: biochemical, human. The following applies: 60 minutes, 37° C. On the procedure: Determination of the thrombolytic activity by the Chandler's loop method: the test solution and control solution were prepared by dissolving the protease and urokinase (a product by Otsuka Seiyaku Co.), respectively, in a physiological saline solution. […] The reference solution for the blank test was the physiological saline solution.
Formation of thrombi and measurement of the dissolution thereof were performed in the following manner. Thus, 0.8 ml of the above obtained fresh blood admixed with sodium citrate and 0.1 ml of a 3% aqueous solution of calcium chloride as CaCl2 ·2H2 O were introduced into a tube of polyvinyl chloride resin having an inner diameter of 3 mm and a length of 250 mm and the ends of the tube were connected to each other to form a loop which was put coaxially on a turntable inclined at an angle of 60° and rotated at 37° C. for 30 minutes at a velocity of 17 r.p.m. to form thrombi therein. Thereafter, 0.1 ml of one of the protease solutions, the urokinase solution or the reference solution was introduced into the loop which was rotated under the same conditions as above for 60 minutes. The thrombi remaining in the tube were then taken out and, after fixing with a Bouin's reagent, i.e. a solution prepared by adding 25 ml of a commercially available formalin solution and 5 ml of glacial acetic acid to 75 ml of a saturated aqueous solution of picric acid, the weight of the wet thrombi was measured.

Urokinase: the “% Thrombolysis” value was found to be 8.0% (concentration in blood 50 Iu/ml blood); 39.8% (concentration in blood 100 Iu/ml blood); 49.7% (concentration in blood 150 Iu/ml blood); 60.3% (concentration in blood 200 Iu/ml blood); 66.4% (concentration in blood 250 Iu/ml blood).
